Here are results for one compound from ChEMBL document CHEMBL5727551, “5-(n-[6,5]-fused bicyclic aryl tetrahydroisoquinolin-6-yl) pyridin-3-yl acetic acid derivatives as inhibitors of human immunodeficiency virus replication” (2020).

Molecules are shown by their SMILES.

This assay is described as follows: Inhibition of HIV Replication: A recombinant NL-RLuc proviral clone was constructed in which a section of the nef gene from NL4-3 was replaced with the Renilla Luciferase gene. This virus is fully infectious and can undergo multiple cycles of replication in cell culture. In addition, the luciferous reporter provides a simple and easy method for quantitating the extent of virus growth and consequently, the antiviral activity of test compounds. The plasmid pNLRLuc contains the proviral NL-Rluc DNA cloned into pUC 18 at the PvuII site. The NL-RLuc virus was prepared by transfection of 293T cells with the plasmid pNLRLuc. Transfections were performed using the LipofectAMINE PLUS kit from Invitrogen (Carlsbad, Calif.) according to the manufacturer and the virus generated was titered in MT-2 cells. For susceptibility analyses, the titrated virus was used to infect MT-2 cells in the presence of compound, and after 5 days of incubation, cells were processed and quantitated for virus growth by the amount of expressed luciferase. Assay media was RPMI 1640 supplemented with 10% heat inactivated fetal bovine serum (FBS), 100 units/ml penicillin G/100 units/ml streptomycin, 10 mM HEPES buffer pH 7.55 and 2 mM L-glutamine. The results from at least 2 experiments were used to calculate the EC50 values. Luciferase was quantitated using the Dual Luciferase kit from Promega (Madison, Wis.). […]. Format: cell-based.

As usually defined, the EC50 is the concentration needed to bring the measured effect to its halfway point. Take `Cc1nc(C)c([C@H](OC(C)(C)C)C(=O)O)c(N2CCC(C)(C)CC2)c1-c1ccc2c(c1)CCN(c1ncnc3cc[nH]c13)C2`: the EC50 is 20 nM.
